Structures are written as SMILES. pIC50: −log10 of the molar value. Starred links: 1 amine or outer side, 2 acyl side, 3 side chain; linkers in the order of their positions; H or OH if unused. Positions of bridges follow the written chain, without caps; N, C: chain ends. Non-standard residues stand in square brackets, D forms with d. Residues, ends and D or L forms follow the SMILES beside them. *: point of attachment. X6 = O=C(CCC(=O)[*:3])N[C@@H](CS[*:2])C(=O)[*:1]; Trp(7-Me) = Cc1cccc2c(C[C@H](N)C(=O)O)c[nH]c12; 2Nal = N[C@@H](Cc1ccc2ccccc2c1)C(=O)O; AEF = NCCOc1ccc(C[C@H](N)C(=O)O)cc1; 3Pal = N[C@@H](Cc1cccnc1)C(=O)O; αMeL = CC(C)C[C@](C)(N)C(=O)O; Me2NCH2CH2 = CN(C)CC*; Aib = CC(C)(N)C(=O)O; Ahx = NCCCCCC(=O)O; Ava = NCCCCC(=O)O; Sar = CNCC(=O)O

The text below walks through data of patent publication US20260258084A1, “New Peptides as Selective IL-23 Receptor Antagonists” (Sanofi, priority 2022, published 2026).

For data set [1], the target named is T1, human interleukin-23 receptor (recombinant human IL-23R-Fc chimera) (Homo sapiens, UniProt Q5VWK5).
T1 construct: Fc (IgG Fc fusion)
Description: Human ELISA IL23/IL23R (assay for specific human IL23R antagonists). The data set is classed as binding. The note with it: Table 10; read-out: Human ELISA IL23/IL23R IC50. An outline of the steps:
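Competition format: peptide dilutions compete for IL23R-Fc chimera (0.1 μg/ml final, 60 min, room temperature) binding to immobilized human IL23 coated at […] overnight at 4 °C. Read-out is fluorogenic HRP signal from goat anti-hu-IgG1 detecting captured receptor.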

Another data set relates to T2, Pepsin.
T2 construct: purchased Merck Millipore
Put plainly: Protease stability in simulated gastric fluid (Pepsin-SGF, FaSSGF). Format: in vitro ADME. The note with it: simulated gastric fluid with pepsin (Pepsin-SGF), 60 min, 1 μM peptide, 37° C., read-out: FaSSGF 60 (min), remaining percent of peptide. Summed up: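 LCMS/MS peak areas, normalised to the time-0 sample as 100%, give percent remaining. Conditions: 37° C incubation of 1 μM final peptide in simulated gastric fluid with pepsin; ethanol/0.1% HCOOH quench at 0, 60, 120, 240 min.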

Another data set relates to Pancreatin. Put plainly: Protease stability in simulated intestinal fluid (Pancreatin-SIF, FaSSIF). Format: in vitro ADME. The note with it: 1 μM peptide, 37° C.; for remaining at 1 h, 1 µM: 60 min, read-out: FaSSIF 60 (min), remaining percent of peptide; for remaining at 2 h, 1 µM: 120 min, read-out: FaSSIF 120 (min), remaining percent of peptide; for remaining at 4 h, 1 µM: 240 min, read-out: FaSSIF 240 (min), remaining percent of peptide. Summed up:
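LC-MS/MS peak areas at 0, 60, 120 and 240 min, normalised to time 0 as 100%, give percent remaining. Reactions used 1 μM final peptide at 37° C in pancreatin-SIF (1 mg pancreatin in 10 mL SIF concentrate) and were stopped with ethanol containing 0.1% HCOOH.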

Data set [2] concerns IL-23 induced STAT3 signaling in HEK-Blue™ IL-23 cells. Put plainly: IL-23 induced STAT3 signaling in HEK-Blue IL-23 cells (SEAP reporter). The note with it: human IL23 0.25 ng/ml, read-out: pSTAT3. The data set is classed as cell-based. Summed up: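 Secreted SEAP, read at OD 620-655 nm after 45 min QUANTI-Blue development, reports STAT3 activation. Beforehand, cells were exposed to peptide dilutions for 60 min at 37 °C and then to 0.25 ng/ml final human IL-23 overnight, at 10,000 cells/well.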

Take `C[C@@H](O)[C@@H]1NC(=O)[C@H](CC(N)=O)NC(=O)[C@@H]2CSSC[C@H](NC(=O)[C@H](CCC(N)=O)NC(=O)[C@H](Cc3c[nH]c4ccccc34)NC1=O)C(=O)N[C@@H](Cc1ccc(OCCN(C)C)cc1)C(=O)N[C@@H](Cc1ccc3ccccc3c1)C(=O)NC(C)(C)C(=O)N[C@H](C(=O)N[C@@H](CC(N)=O)C(=O)N[C@@H](CC(N)=O)C(N)=O)CCCCN(C)C(=O)CCC(=O)N2` [compound 25]: the pIC50 in data set [1] is 9.23; in data set [2], 7.41. The fraction remaining at 1 h, 1 µM with Pepsin is 74%; in the data set with Pancreatin, 71%. Further, in the data set with Pancreatin, the share remaining at 2 h, 1 µM is 52%. Also, in the data set on Pancreatin, the share remaining at 4 h, 1 µM is 45%.
On to `COc1ccc(C[C@@H]2NC(=O)[C@@H]3CSSC[C@H](NC(=O)CCCCCNC(=O)C[C@@H](C(=O)N[C@@H](CC(N)=O)C(=O)N[C@@H](CC(N)=O)C(N)=O)NC(=O)C(C)(C)NC(=O)[C@H](Cc4ccc5ccccc5c4)NC2=O)C(=O)N[C@@H](CC(N)=O)C(=O)N[C@@H]([C@@H](C)O)C(=O)N[C@@H](Cc2c[nH]c4ccccc24)C(=O)N[C@@H](CCC(N)=O)C(=O)N3)cc1` [compound 3] ([Ahx]CNTWQCY(Me)[2Nal][Aib]DNN-NH2; disulfide 2-7; lactam N-11), for which the pIC50 in data set [1] is 9.15. For the same molecule, the fraction remaining at 1 h, 1 µM with Pepsin was 1%. Besides, in the data set on Pancreatin, the amount remaining at 1 h, 1 µM is 76%; the fraction remaining at 2 h, 1 µM was 64%; the fraction remaining at 4 h, 1 µM is 38%. In addition, the pIC50 in data set [2] is 7.76.
Regarding `C[C@H](NC(=O)[C@@H]1CC(=O)NCCCCCC(=O)N[C@H]2CSSC[C@H](NC(=O)[C@H](CCC(N)=O)NC(=O)[C@H](Cc3c[nH]c4ccccc34)NC(=O)CCCCNC2=O)C(=O)N[C@@H](Cc2ccc(OCCN)cc2)C(=O)N[C@@H](Cc2ccc3ccccc3c2)C(=O)NC(C)(C)C(=O)N1)C(=O)NCC(N)=O` [compound 53] ([Ahx]C[Ava]WQC[AEF][2Nal][Aib]DAG-NH2; disulfide 2-6; lactam N-10), in data set [1], the pIC50 is 9.15. Also, the amount remaining at 1 h, 1 µM in the data set on Pepsin is 0%. Besides, in the data set on Pancreatin, the share remaining at 1 h, 1 µM is 95%; the fraction remaining at 2 h, 1 µM was 89%; the fraction remaining at 4 h, 1 µM is 75%. For the same molecule, the pIC50 in data set [2] is 7.22.
With `Cc1cccc2c(C[C@@H]3NC(=O)[C@H]([C@@H](C)O)NC(=O)[C@H](CC(N)=O)NC(=O)[C@@H]4CSSC[C@H](NC(=O)[C@H](CCC(N)=O)NC3=O)C(=O)N[C@@H](Cc3ccc(OCCN(C)C)cc3)C(=O)N[C@@H](Cc3ccc5ccccc5c3)C(=O)NC(C)(C)C(=O)N[C@H](C(=O)N[C@@H](CC(N)=O)C(=O)N[C@@H](Cc3c[nH]cn3)C(N)=O)CCC(=O)NCCCCC(=O)N4)c[nH]c12` [compound 52] ([Ava]CNT[Trp(7-Me)]QCY(Me2NCH2CH2)[2Nal][Aib]ENH-NH2; disulfide 2-7; lactam N-11), the pIC50 in data set [1] was 9.30; in data set [2], 8.90. Besides, the fraction remaining at 1 h, 1 µM in the data set on Pepsin was 102%; in the data set on Pancreatin it was 81%. Further, the fraction remaining at 2 h, 1 µM in the data set on Pancreatin is 76%. Besides, the amount remaining at 4 h, 1 µM in the data set with Pancreatin is 65%.
`CC(=O)N[C@H]1CCCCNC(=O)[C@@H]2CSSC[C@H](NC(=O)[C@H](CC(C)C)NC(=O)[C@H](Cc3c[nH]c4c(C)cccc34)NC1=O)C(=O)N[C@@H](Cc1ccc(OCCN(C)C)cc1)C(=O)N[C@@H](Cc1ccc3ccccc3c1)C(=O)N[C@@](C)(CC(C)C)C(=O)N[C@H](C(=O)N[C@@H](CC(N)=O)C(=O)N[C@@H](Cc1cccnc1)C(=O)N(C)CC(N)=O)CCCCNC(=O)CCC(=O)N2` [compound 158] (Ac-K[Trp(7-Me)]LCY(Me2NCH2CH2)[2Nal][αMeL]KN[3Pal][Sar]-NH2; linker 1-4-8 via X6): the pIC50 in data set [1] was 8.71. Moreover, the fraction remaining at 1 h, 1 µM in the data set with Pepsin was 37%. Besides, in the data set on Pancreatin, the share remaining at 1 h, 1 µM is 80%; the share remaining at 2 h, 1 µM is 73%; the amount remaining at 4 h, 1 µM is 74%. The pIC50 in data set [2] was 9.41.
